Measurements from US10046060B2, “Co-administration of an agent linked to an internalization peptide with an anti-inflammatory” (NoNO Inc., priority 2007, dated 2018).
Ends that are not written are not given here.

Tested on: humans
Assay: Safety, Tolerability and Pharmacokinetic Study in humans: blood histamine
Assay type: in vivo, human
Conditions: for Average histamine level of subjects with >10 nmol/L / Maximum histamine level: 3.75 mg/kg
Experimental: We carried out a Safety, Tolerability and Pharmacokinetic Study of Tat-NR2B9c in humans. Subjects were either normal, healthy, non-smoking males or post-menopausal or surgically sterile female subjects with a minimum age of 18 years. The subjects were either administered Tat-NR2B9c, Lot #: 124-134-001B, or were given placebo (Phosphate Buffered Saline), Lot #: 124-134-001A, administered as an intravenous infusion (10±1 minutes). Four subjects were dosed in each of Cohorts 1 to 3, and 10 subjects were dosed in each of Cohorts 4 to 8. All 62 subjects completed the study. Treatment periods for each cohort were as follows: Cohort 1: Sep. 14, 2006; Cohort 2: Sep. 26, 2006; Cohort 3: Oct. 6, 2006; Cohort 4: Oct. 20, 2006; Cohort 5: Nov. 6, 2006; Cohort 6: Dec. 4, 2006; Cohort 7: Dec. 17, 2006; Cohort 8: Feb. 25, 2007.
During the study period, 11 blood samples were collected for pharmacokinetic analysis from each subject at the following timepoints: 0.00 (pre-dose), 0.08 (5 minutes), 0.17 to 0.25 (10 to 15 minutes, precisely at the end of each individual drug infusion), 0.33 (20 minutes), 0.50, 0.75, 1.00, 2.00, 6.00, 12.00, and 24.00 hours post-dose. In addition, 8 blood samples were collected for histamine analysis from each subject at the following timepoints: 0.00 (pre-dose), and at 0.08 (5 minutes), 0.17 (10 minutes), 0.25, 0.50, 1.00, 2.00, and 24.00 hours post-dose.

[1] = 10 minutes after start of administration
[2] = 15 minutes after start of administration

YGRKKRRQRRRKLSSIESDV [Tat-NR2B9c]
15.3 nmol/L: Average histamine level of subjects with >10 nmol/L [2]
20.3 nmol/L: Maximum histamine level [2]
39.8 nmol/L: Maximum histamine level [1]
1: Number of Subjects with Histamine levels >10 nmol/L (NA-1 0.375 mg/kg (n = 8), Screening)
0: Number of Subjects with Histamine levels >10 nmol/L (NA-1 0.02 mg/kg (n = 2), Day 1, 0.00 hr) | Number of Subjects with Histamine levels >10 nmol/L (NA-1 0.02 mg/kg (n = 2), Day 1, 0.08 hr) | Number of Subjects with Histamine levels >10 nmol/L (NA-1 0.02 mg/kg (n = 2), Day 1, 0.17 hr) | Number of Subjects with Histamine levels >10 nmol/L (NA-1 0.02 mg/kg (n = 2), Day 1, 0.25 hr) | Number of Subjects with Histamine levels >10 nmol/L (NA-1 0.02 mg/kg (n = 2), Day 1, 0.50 hr) | Number of Subjects with Histamine levels >10 nmol/L (NA-1 0.02 mg/kg (n = 2), Day 1, 1.00 hr) | Number of Subjects with Histamine levels >10 nmol/L (NA-1 0.02 mg/kg (n = 2), Day 1, 2.00 hr) | Number of Subjects with Histamine levels >10 nmol/L (NA-1 0.02 mg/kg (n = 2), Day 1, 24.00 hr) | Number of Subjects with Histamine levels >10 nmol/L (NA-1 0.02 mg/kg (n = 2), Day 7) | Number of Subjects with Histamine levels >10 nmol/L (NA-1 0.02 mg/kg (n = 2), Day 14) | Number of Subjects with Histamine levels >10 nmol/L (NA-1 0.02 mg/kg (n = 2), Day 28 End-of-study) | Number of Subjects with Histamine levels >10 nmol/L (NA-1 0.02 mg/kg (n = 2), Screening) | Number of Subjects with Histamine levels >10 nmol/L (NA-1 0.08 mg/kg (n = 2), Day 1, 0.00 hr) | Number of Subjects with Histamine levels >10 nmol/L (NA-1 0.08 mg/kg (n = 2), Day 1, 0.08 hr) | Number of Subjects with Histamine levels >10 nmol/L (NA-1 0.08 mg/kg (n = 2), Day 1, 0.17 hr) | Number of Subjects with Histamine levels >10 nmol/L (NA-1 0.08 mg/kg (n = 2), Day 1, 0.25 hr) | Number of Subjects with Histamine levels >10 nmol/L (NA-1 0.08 mg/kg (n = 2), Day 1, 0.50 hr) | Number of Subjects with Histamine levels >10 nmol/L (NA-1 0.08 mg/kg (n = 2), Day 1, 1.00 hr) | Number of Subjects with Histamine levels >10 nmol/L (NA-1 0.08 mg/kg (n = 2), Day 1, 2.00 hr) | Number of Subjects with Histamine levels >10 nmol/L (NA-1 0.08 mg/kg (n = 2), Day 1, 24.00 hr) | Number of Subjects with Histamine levels >10 nmol/L (NA-1 0.08 mg/kg (n = 2), Day 7) | Number of Subjects with Histamine levels >10 nmol/L (NA-1 0.08 mg/kg (n = 2), Day 14) | Number of Subjects with Histamine levels >10 nmol/L (NA-1 0.08 mg/kg (n = 2), Day 28 End-of-study) | Number of Subjects with Histamine levels >10 nmol/L (NA-1 0.08 mg/kg (n = 2), Screening) | Number of Subjects with Histamine levels >10 nmol/L (NA-1 0.20 mg/kg (n = 2), Day 1, 0.00 hr) | Number of Subjects with Histamine levels >10 nmol/L (NA-1 0.20 mg/kg (n = 2), Day 1, 0.08 hr) | Number of Subjects with Histamine levels >10 nmol/L (NA-1 0.20 mg/kg (n = 2), Day 1, 0.17 hr) | Number of Subjects with Histamine levels >10 nmol/L (NA-1 0.20 mg/kg (n = 2), Day 1, 0.25 hr) | Number of Subjects with Histamine levels >10 nmol/L (NA-1 0.20 mg/kg (n = 2), Day 1, 0.50 hr) | Number of Subjects with Histamine levels >10 nmol/L (NA-1 0.20 mg/kg (n = 2), Day 1, 1.00 hr) | Number of Subjects with Histamine levels >10 nmol/L (NA-1 0.20 mg/kg (n = 2), Day 1, 2.00 hr) | Number of Subjects with Histamine levels >10 nmol/L (NA-1 0.20 mg/kg (n = 2), Day 1, 24.00 hr) | Number of Subjects with Histamine levels >10 nmol/L (NA-1 0.20 mg/kg (n = 2), Day 7) | Number of Subjects with Histamine levels >10 nmol/L (NA-1 0.20 mg/kg (n = 2), Day 14) | Number of Subjects with Histamine levels >10 nmol/L (NA-1 0.20 mg/kg (n = 2), Day 28 End-of-study) | Number of Subjects with Histamine levels >10 nmol/L (NA-1 0.20 mg/kg (n = 2), Screening) | Number of Subjects with Histamine levels >10 nmol/L (NA-1 0.375 mg/kg (n = 8), Day 1, 0.00 hr) | Number of Subjects with Histamine levels >10 nmol/L (NA-1 0.375 mg/kg (n = 8), Day 1, 0.08 hr) | Number of Subjects with Histamine levels >10 nmol/L (NA-1 0.375 mg/kg (n = 8), Day 1, 0.17 hr) | Number of Subjects with Histamine levels >10 nmol/L (NA-1 0.375 mg/kg (n = 8), Day 1, 0.25 hr) | Number of Subjects with Histamine levels >10 nmol/L (NA-1 0.375 mg/kg (n = 8), Day 1, 0.50 hr) | Number of Subjects with Histamine levels >10 nmol/L (NA-1 0.375 mg/kg (n = 8), Day 1, 1.00 hr) | Number of Subjects with Histamine levels >10 nmol/L (NA-1 0.375 mg/kg (n = 8), Day 1, 2.00 hr) | Number of Subjects with Histamine levels >10 nmol/L (NA-1 0.375 mg/kg (n = 8), Day 1, 24.00 hr) | Number of Subjects with Histamine levels >10 nmol/L (NA-1 0.375 mg/kg (n = 8), Day 7) | Number of Subjects with Histamine levels >10 nmol/L (NA-1 0.375 mg/kg (n = 8), Day 14) | Number of Subjects with Histamine levels >10 nmol/L (NA-1 0.375 mg/kg (n = 8), Day 28 End-of-study)
24.3 nmol/L: Average histamine level of subjects with >10 nmol/L [1]
